# Experimental data taken from patent publication US9701670B2, “Pyrazolyl-ureas as kinase inhibitors” (RESPIVERT LIMITED, priority 2013, dated 2017).
# Experiments:
# [1] = target: p38 MAPKα isoform (MAPK14) (Homo sapiens (Human), UniProt Q16539); test: p38 MAPKα enzyme inhibition (FRET, Z-LYTE), Method 1; assay type: biochemical; details: Method 1 (Table 4a1)
# Protocol: The enzyme inhibitory activities of compounds disclosed herein are determined by FRET using synthetic peptides labelled with both donor and acceptor fluorophores (Z-LYTE, Invitrogen Ltd., Paisley, UK).
# The inhibitory activities of test compounds against the p38 MAPKα isoform (MAPK14: Invitrogen), are evaluated indirectly by determining the level of activation/phosphorylation of the down-stream molecule, MAPKAP-K2. The p38 MAPKα protein (80 ng/mL, 2.5 μL) is mixed with the test compound (2.5 μL of either 4 μg/mL, 0.4 μg/mL, 0.04 μg/mL or 0.004 μg/mL) for 2 hr at RT. […] The mixture is incubated for 1 hr at RT. Development reagent (protease, 5 μL) is added for 1 hr prior to detection in a fluorescence microplate reader (Varioskan® Flash, ThermoFisher Scientific).
# In all cases, the site-specific protease cleaves non-phosphorylated peptide only and eliminates the FRET signal. Phosphorylation levels of each reaction are calculated using the ratio of coumarin emission (donor) over fluorescein emission (acceptor), for which high ratios indicate high phosphorylation and low ratios indicate low phosphorylation levels.
# [2] = test system: Differentiated U937 cells; test: (l) Cell viability: MTT assay; assay type: cell-based, human; details: 1 μg/mL
# Protocol: Differentiated U937 cells are pre-incubated with each test compound (final concentration 1 μg/mL or 10 μg/mL in 200 μL media indicated below) under two protocols: the first for 4 hr in 5% FCS RPMI1640 media and the second in 10% FCS RPMI1640 media for 24 h. The supernatant is replaced with new media (200 μL) and MTT stock solution (10 μL, 5 mg/mL) is added to each well. After incubation for 1 hr the media are removed, DMSO (200 μL) is added to each well and the plates are shaken lightly for 1 hr prior to reading the absorbance at 550 nm. The percentage loss of cell viability is calculated for each well relative to vehicle (0.5% DMSO) treatment. Consequently an apparent increase in cell viability for drug treatment relative to vehicle is tabulated as a negative percentage.
# Sequence of p38 MAPKα isoform (MAPK14) (Q16539 whole entry, canonical isoform): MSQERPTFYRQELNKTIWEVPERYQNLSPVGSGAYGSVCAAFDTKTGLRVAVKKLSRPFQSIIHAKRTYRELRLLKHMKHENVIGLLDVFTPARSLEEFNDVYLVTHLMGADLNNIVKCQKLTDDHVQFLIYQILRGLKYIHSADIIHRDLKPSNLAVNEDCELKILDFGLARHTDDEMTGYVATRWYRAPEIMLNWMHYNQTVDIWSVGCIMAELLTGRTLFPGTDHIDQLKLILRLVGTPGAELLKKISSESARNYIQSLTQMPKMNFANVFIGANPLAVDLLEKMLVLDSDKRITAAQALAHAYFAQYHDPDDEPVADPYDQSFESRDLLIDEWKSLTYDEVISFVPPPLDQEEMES
SMILES,IC50 [1],Cell viability at time point in d-U937 cells 4 h [2],Cell viability at time point in d-U937 cells 24 h [2]
"Cc1ccc(-n2nc(C(C)(C)C)cc2NC(=O)Nc2ccc(Oc3ccnc(Nc4cccc(C(N)=O)c4)n3)c3ccccc23)cc1 [Example 2, 3-((4-((4-(3-(3-(tert-Butyl)-1-(p-tolyl)-1H-pyrazol-5-yl)ureido)naphthalen-1-yl)oxy)pyrimidin-2-yl)amino)benzamide]",27 nM,"−ve (−ve and +ve indicate that the value is below and above respectively, the no significant effect threshold, defined as 30% inhibition at 1 μg/mL at the time point indicated.)","−ve (−ve and +ve indicate that the value is below and above respectively, the no significant effect threshold, defined as 30% inhibition at 1 μg/mL at the time point indicated.)"
"Cc1ccc(-n2nc(C(C)(C)C)cc2NC(=O)Nc2ccc(Oc3ccnc(Nc4cccc(C(=O)NCCN5CCOCC5)c4)n3)c3ccccc23)cc1 [Example 3, 3-((4-((4-(3-(3-(tert-Butyl)-1-(p-tolyl)-1H-pyrazol-5-yl)ureido)naphthalen-1-yl)oxy)pyrimidin-2-yl)amino)-N-(2-morpholinoethyl)benzamide]",7 nM,"−ve (−ve and +ve indicate that the value is below and above respectively, the no significant effect threshold, defined as 30% inhibition at 1 μg/mL at the time point indicated.)","−ve (−ve and +ve indicate that the value is below and above respectively, the no significant effect threshold, defined as 30% inhibition at 1 μg/mL at the time point indicated.)"
"COc1ccc(-n2nc(C(C)C)cc2NC(=O)Nc2ccc(Oc3ccnc(Nc4cc(OC)cc(C(=O)NCCN(C)C)c4)n3)c3ccccc23)cc1 [Example 6, N-(2-(Dimethylamino)ethyl)-3-((4-((4-(3-(3-isopropyl-1-(4-methoxyphenyl)-1H-pyrazol-5-yl)ureido)naphthalen-1-yl)oxy)pyrimidin-2-yl)amino)-5-methoxy benzamide]",–,"−ve (−ve and +ve indicate that the value is below and above respectively, the no significant effect threshold, defined as 30% inhibition at 1 μg/mL at the time point indicated.)","−ve (−ve and +ve indicate that the value is below and above respectively, the no significant effect threshold, defined as 30% inhibition at 1 μg/mL at the time point indicated.)"
"Cc1ccc(-n2nc(C(C)C)cc2NC(=O)Nc2ccc(Oc3ccnc(Nc4cc(C(=O)NCCN5CCOCC5)cc(C(F)(F)F)c4)n3)c3ccccc23)cc1 [Example 7, 3-((4-((4-(3-(3-isopropyl-1-(p-tolyl)-1H-pyrazol-5-yl)ureido)naphthalen-1-yl)oxy)pyrimidin-2-yl)amino)-N-(2-morpholinoethyl)-5-(trifluoromethyl)benzamide]",–,"−ve (−ve and +ve indicate that the value is below and above respectively, the no significant effect threshold, defined as 30% inhibition at 1 μg/mL at the time point indicated.)","−ve (−ve and +ve indicate that the value is below and above respectively, the no significant effect threshold, defined as 30% inhibition at 1 μg/mL at the time point indicated.)"
"COc1ccc(Nc2nccc(Oc3ccc(NC(=O)Nc4cc(C(C)(C)C)nn4-c4ccc(C)cc4)c4ccccc34)n2)cc1C(=O)NCCN1CCOCC1 [Example 13, 5-((4-((4-(3-(3-(tert-Butyl)-1-(p-tolyl)-1H-pyrazol-5-yl)ureido)naphthalen-1-yl)oxy)pyrimidin-2-yl)amino)-2-methoxy-N-(2-morpholinoethyl)benzamide]",–,"−ve (−ve and +ve indicate that the value is below and above respectively, the no significant effect threshold, defined as 30% inhibition at 1 μg/mL at the time point indicated.)","−ve (−ve and +ve indicate that the value is below and above respectively, the no significant effect threshold, defined as 30% inhibition at 1 μg/mL at the time point indicated.)"
"Cc1ccc(-n2nc(C(C)C)cc2NC(=O)Nc2ccc(Oc3ccnc(Nc4cccc(C(=O)NCCN5CCOCC5)c4)n3)c3ccccc23)cc1 [Example 19, 3-((4-((4-(3-(3-isopropyl-1-(p-tolyl)-1H-pyrazol-5-yl)ureido)naphthalen-1-yl)oxy)pyrimidin-2-yl)amino)-N-(2-morpholinoethyl)benzamide]",–,"−ve (−ve and +ve indicate that the value is below and above respectively, the no significant effect threshold, defined as 30% inhibition at 1 μg/mL at the time point indicated.)","−ve (−ve and +ve indicate that the value is below and above respectively, the no significant effect threshold, defined as 30% inhibition at 1 μg/mL at the time point indicated.)"
"COc1ccc(C(=O)NCCN(C)C)cc1Nc1nccc(Oc2ccc(NC(=O)Nc3cc(C(C)(C)C)nn3-c3ccc(C)cc3)c3ccccc23)n1 [Example 29, 3-((4-((4-(3-(3-(tert-butyl)-1-(p-tolyl)-1H-pyrazol-5-yl)ureido)naphthalen-1-yl)oxy)pyrimidin-2-yl)amino)-N-(2-(dimethylamino)ethyl)-4-methoxybenzamide]",–,"−ve (−ve and +ve indicate that the value is below and above respectively, the no significant effect threshold, defined as 30% inhibition at 1 μg/mL at the time point indicated.)","−ve (−ve and +ve indicate that the value is below and above respectively, the no significant effect threshold, defined as 30% inhibition at 1 μg/mL at the time point indicated.)"
"COc1ccc(-n2nc(C(C)C)cc2NC(=O)Nc2ccc(Oc3ccnc(Nc4cc(C)cc(C(=O)NCCN5CCOCC5)c4)n3)c3ccccc23)cc1 [Example 45, 3-((4-((4-(3-(3-isopropyl-1-(4-methoxyphenyl)-1H-pyrazol-5-yl)ureido)naphthalen-1-yl)oxy)pyrimidin-2-yl)amino)-5-methyl-N-(2-morpholinoethyl)benzamide]",–,"−ve (−ve and +ve indicate that the value is below and above respectively, the no significant effect threshold, defined as 30% inhibition at 1 μg/mL at the time point indicated.)","−ve (−ve and +ve indicate that the value is below and above respectively, the no significant effect threshold, defined as 30% inhibition at 1 μg/mL at the time point indicated.)"
"COc1cc(Nc2nccc(Oc3ccc(NC(=O)Nc4cc(C(C)(C)C)nn4-c4ccc(OC)nc4)c4ccccc34)n2)cc(C(=O)NCCN2CCOCC2)c1 [Example 57, 3-((4-((4-(3-(3-(tert-butyl)-1-(6-methoxypyridin-3-yl)-1H-pyrazol-5-yl)ureido)naphthalen-1-yl)oxy)pyrimidin-2-yl)amino)-5-methoxy-N-(2-morpholinoethyl)benzamide]",–,"−ve (−ve and +ve indicate that the value is below and above respectively, the no significant effect threshold, defined as 30% inhibition at 1 μg/mL at the time point indicated.)","−ve (−ve and +ve indicate that the value is below and above respectively, the no significant effect threshold, defined as 30% inhibition at 1 μg/mL at the time point indicated.)"
"COc1ccc(-n2nc(C(C)(C)C)cc2NC(=O)Nc2ccc(Oc3cc(Nc4cc(OC)cc(C(=O)NCCN5CCOCC5)c4)ncn3)c(C)c2C)cc1 [Example 91, 3-((6-(4-(3-(3-(tert-Butyl)-1-(4-methoxyphenyl)-1H-pyrazol-5-yl)ureido)-2,3-dimethylphenoxy)pyrimidin-4-yl)amino)-5-methoxy-N-(2-morpholinoethyl)benzamide]",9.6 nM,–,–
